Where two headings read alike, the source gives them in different places.
Legend:
MOLM13 cells = assay: Growth inhibition of CDK9-positive cell line MOLM13 in vitro (CCK8/MTT assay); assay type: cell-based, human
CDK9/CyclinK kinase = target: T1, CDK9/CyclinK kinase (Homo sapiens, UniProt P50750); assay: CDK9 protein kinase activity, ADP-Glo CDK9/CyclinK kinase detection kit; assay type: biochemical; conditions: read-out: IC50 of the compound for inhibiting CDK9 protein kinase activity, CDK9/CyclinK kinase
T1 construct: purchased Promega Corporation V4105
Protocol: Measurement of CDK9 Protein Kinase Activity
The present compound was dissolved in DMSO (Sigma Aldrich), and the initial concentration of the compound was 1000 nM. A two-fold serial dilution was carried out. The specific operation of CDK9 kinase activity determination was carried out according to the ADP-Go™ CDK9/CyclinK kinase detection experimental procedure. […] Each test sample was tested in duplicate, and the test was repeated once. The inhibitory activity (IC50) of the compound on CDK9 protein kinase was calculated from the dose-inhibition curve of the compound.

[1] = Homo sapiens, MOLM-13, MOLM13 cells, cultured 3 to 6 days, CCK8, read-out: IC50 of the compound for inhibiting cell growth, MOLM13 cells
[2] = Homo sapiens, MOLM-13, read-out: IC50 of the compound for inhibiting cell growth, MOLM13 cells

T1 sequence (P50750 whole entry): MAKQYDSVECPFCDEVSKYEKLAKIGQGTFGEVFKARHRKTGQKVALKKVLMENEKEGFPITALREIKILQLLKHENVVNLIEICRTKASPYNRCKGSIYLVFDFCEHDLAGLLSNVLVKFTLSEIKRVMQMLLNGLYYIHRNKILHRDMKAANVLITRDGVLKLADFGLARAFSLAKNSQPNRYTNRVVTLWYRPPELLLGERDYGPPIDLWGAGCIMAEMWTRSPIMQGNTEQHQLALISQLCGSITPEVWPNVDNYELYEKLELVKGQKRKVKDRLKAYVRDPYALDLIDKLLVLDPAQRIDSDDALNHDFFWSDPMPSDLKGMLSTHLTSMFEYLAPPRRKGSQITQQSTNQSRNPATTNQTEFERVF
T1 sequence (O75909 whole entry partner): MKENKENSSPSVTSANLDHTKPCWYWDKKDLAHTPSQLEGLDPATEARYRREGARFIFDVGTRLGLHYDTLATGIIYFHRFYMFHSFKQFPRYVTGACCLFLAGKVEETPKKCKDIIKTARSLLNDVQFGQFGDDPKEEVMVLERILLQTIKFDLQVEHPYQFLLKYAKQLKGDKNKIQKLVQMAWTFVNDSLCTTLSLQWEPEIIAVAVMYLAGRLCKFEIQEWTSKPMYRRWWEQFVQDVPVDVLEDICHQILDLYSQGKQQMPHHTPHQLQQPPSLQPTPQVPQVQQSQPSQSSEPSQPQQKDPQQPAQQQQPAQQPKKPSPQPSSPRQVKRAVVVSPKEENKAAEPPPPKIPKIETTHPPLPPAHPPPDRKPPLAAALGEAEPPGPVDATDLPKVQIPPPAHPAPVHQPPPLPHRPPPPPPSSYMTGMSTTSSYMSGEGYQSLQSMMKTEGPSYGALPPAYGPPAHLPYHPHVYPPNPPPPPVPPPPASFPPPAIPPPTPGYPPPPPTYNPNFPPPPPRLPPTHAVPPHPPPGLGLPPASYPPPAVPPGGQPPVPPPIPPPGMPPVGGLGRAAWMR

| SMILES | IC50 (MOLM13 cells; [1]) | IC50 (CDK9/CyclinK kinase) | other results |
| --- | --- | --- | --- |
| Cc1cc(Nc2ncc(Cl)c(-n3cc(C(N)=O)c4ccccc43)n2)ccc1N(C)CCN(C)C [Compound 89, 1-(5-chloro-2-{4-[(2-dimethylamino-ethyl)-methyl-amino]-3-methyl-phenylamino}-pyrimidin-4-yl)-1H-indole-3-carboxamide] | < 1 nM | 10 to 100 nM |  |
| CCN1CCN(c2cccc(Nc3ncc(F)c(-n4cc(C(N)=O)c5cc(O)ccc54)n3)c2)CC1 [Compound 163, 1-{2-[3-(4-ethyl-piperazin-1-yl)-phenylamino]-5-fluoro-pyrimidin-4-yl}-5-hydroxy-1H-indole-3-carboxamide] | < 1 nM | < 1 nM |  |
| Cc1cc(Nc2ncc(Cl)c(-n3cc(C(N)=O)c4ccccc43)n2)ccc1N1CCNCC1 [Compound 42, 1-[5-chloro-2-(3-methyl-4-piperazin-1-yl-phenylamino)-pyrimidin-4-yl]-1H-indole-3-carboxamide] | < 1 nM | 1 to 10 nM |  |
| Cc1cc(Nc2ncc(F)c(-n3cc(C(N)=O)c4ccccc43)n2)ccc1N(C)CCN(C)C [Compound 88, 1-(2-{4-[(2-dimethylamino-ethyl)-methyl-amino]-3-methyl-phenylamino}-5-fluoro-pyrimidin-4-yl)-1H-indole-3-carboxamide] | < 1 nM | 10 to 100 nM |  |
| Cc1cc(Nc2ncc(F)c(-n3cc(C(N)=O)c4ccccc43)n2)ccc1N1CCNCC1 [Compound 39, 1-[5-fluoro-2-(3-methyl-4-piperazin-1-yl-phenylamino)-pyrimidin-4-yl]-1H-indole-3-carboxamide] |  | 1 to 10 nM | IC50 (MOLM13 cells; [2]): < 1 nM |
| COc1cc(F)c([N+](=O)[O-])cc1Nc1nccc(-n2cc(C(N)=O)c3ccccc32)n1 [Compound 7, 1-[2-(4-fluoro-2-methoxy-5-nitro-phenylamino)-pyrimidin-4-yl]-1H-indole-3-carboxamide] | 10 to 100 nM |  |  |
| CCC(C)N1CCN(c2cccc(Nc3ncc(F)c(-n4cc(C(N)=O)c5ccccc54)n3)c2)CC1 (stereo not drawn) [Compound 145, 1-{2-[3-(4-sec-butyl-piperazin-1-yl)-phenylamino]-5-fluoro-pyrimidin-4-yl}-1H-indole-3-carboxamide] | 10 to 100 nM |  |  |
| CNC(=O)c1cn(-c2ccnc(Nc3cccc(N4CCNCC4)c3)n2)c2ccccc12 [Compound 107, 1-[2-(3-piperazin-1-yl-phenylamino)-pyrimidin-4-yl]-1H-indole-3-carboxmethylamide] | 10 to 100 nM |  |  |
| CCN1CCN(c2ccc(Nc3ncc(F)c(-n4cc(C(N)=O)c5ccccc54)n3)cc2C)CC1 [Compound 57, 1-{2-[4-(4-ethyl-piperazin-1-yl)-3-methyl-phenylamino]-5-fluoro-pyrimidin-4-yl}-1H-indole-3-carboxamide] | 1 to 10 nM |  |  |
| NC(=O)c1cn(-c2nc(Nc3cccc(N4CCN(C(=O)C5CCCC5)CC4)c3)ncc2F)c2ccccc12 [Compound 171] | 10 to 100 nM |  |  |
| CN(CCN1CCCC1)c1ccc(Nc2ncc(F)c(-n3cc(C(N)=O)c4ccccc43)n2)cc1 [Compound 93, 1-(5-fluoro-2-{4-[methyl-(2-pyrrolidin-1-yl-ethyl)-amino]-phenylamino}-pyrimidin-4-yl)-1H-indole-3-carboxamide] | 1 to 10 nM |  |  |
| CNC(=O)c1cn(-c2ccnc(Nc3cccc(N4CCN(C)CC4)c3)n2)c2ccccc12 [Compound 106, 1-{2-[3-(4-methyl-piperazin-1-yl)-phenylamino]-pyrimidin-4-yl}-1H-indole-3-carboxmethylamide] |  |  | IC50 (MOLM13 cells; MOLM13 cells, cultured 3 to 6 days, CCK8, read-out: IC50 of the compound for inhibiting cell growth, MOLM13 cells): 10 to 100 nM |
| COc1cc(Nc2ncc(F)c(-n3cc(C(N)=O)c4ccccc43)n2)ccc1N(C)CCN(C)C [Compound 86, 1-(2-{4-[(2-dimethylamino-ethyl)-methyl-amino]-3-methoxy-phenylamino}-5-fluoro-pyrimidin-4-yl)-1H-indole-3-carboxamide] | 1 to 10 nM |  |  |
| CN1CCN(c2cccc(Nc3ncc(F)c(-n4cc(C(N)=O)c5ccccc54)n3)c2)CC1 [Compound 115, 1-{5-fluoro-2-[3-(4-methyl-piperazin-1-yl)-phenylamino]-pyrimidin-4-yl}-1H-indole-3-carboxamide] |  | < 1 nM | IC50 (MOLM13 cells; [2]): < 1 nM |
| NC(=O)c1cn(-c2nc(Nc3cccc(N4CCN(C(=O)C5CCCN5)CC4)c3)ncc2F)c2ccccc12 (stereo not drawn) [Compound 169, 1-(5-fluoro-2-{3-[4-(pyrrolidin-2-carbonyl)-1-piperazin-1-yl]-phenylamino}-pyrimidin-4-yl)-1H-indole-3-carboxamide] | 1 to 10 nM |  |  |

The next lines start with results.

| IC50 (MOLM13 cells; [1]) | IC50 (CDK9/CyclinK kinase) | SMILES | other results |
| --- | --- | --- | --- |
| < 1 nM | < 1 nM | NC(=O)c1cn(-c2nc(Nc3cccc(N4CCN(C(=O)N5CCOCC5)CC4)c3)ncc2F)c2ccccc12 [Compound 167, 1-(5-fluoro-2-{3-[4-(morpholin-4-carbonyl)-piperazin-1-yl]-phenylamino}-pyrimidin-4-yl)-1H-indole-3-carboxamide] |  |
| 10 to 100 nM |  | COCCN1CCN(c2ccc(Nc3nccc(-n4cc(C(N)=O)c5ccccc54)n3)cc2)CC1 [Compound 26, 1-(2-{4-[4-(2-methoxy-ethyl)-piperazin-1-yl]-phenylamino}-pyrimidin-4-yl)-1H-indole-3-carboxamide] |  |
| > 1000 nM |  | NC(=O)c1cn(-c2ccnc(Nc3ccc(C(F)(F)F)c(Cl)c3)n2)c2ccccc12 [Compound 2, 1-[2-(3-chloro-4-trifluoromethyl-phenylamino)-pyrimidin-4-yl]-1H-indole-3-carboxamide] |  |
| < 1 nM | 1 to 10 nM | Cc1cc(Nc2ncc(F)c(-n3cc(C(N)=O)c4ccccc43)n2)ccc1N1CCN(C)CC1 [Compound 55, 1-{5-fluoro-2-[3-methyl-4-(4-methyl-piperazin-1-yl)-phenylamino]-pyrimidin-4-yl}-1H-indole-3-carboxamide] |  |
| 1 to 10 nM |  | COc1cc(Nc2ncc(C)c(-n3cc(C(N)=O)c4ccccc43)n2)ccc1N(C)CCN1CCCC1 [Compound 100, 1-(2-{3-methoxy-4-[methyl-(2-pyrrolidin-1-yl-ethyl)-amino]-phenylamino}-5-methyl-pyrimidin-4-yl)-1H-indole-3-carboxamide] |  |
| 10 to 100 nM |  | NC(=O)c1cn(-c2ccnc(Nc3ccc(OCCN4CCOCC4)cc3)n2)c2ccccc12 [Compound 21, 1-{2-[4-(2-morpholin-4-yl-ethoxy)-phenylamino]-pyrimidin-4-yl}-1H-indole-3-carboxamide] |  |
| 10 to 100 nM |  | COc1ccc(Nc2ncc(Cl)c(-n3cc(C(N)=O)c4ccccc43)n2)cc1N1CCN(C)CC1 [Compound 122, 1-{5-chloro-2-[4-methoxy-3-(4-methyl-piperazin-1-yl)-phenylamino]-pyrimidin-4-yl}-1H-indole-3-carboxamide] |  |
| 1 to 10 nM |  | NC(=O)c1cn(-c2nc(Nc3ccc(N4CCNCC4)c(F)c3)ncc2Cl)c2ccccc12 [Compound 44, 1-[5-chloro-2-(3-fluoro-4-piperazin-1-yl-phenylamino)-pyrimidin-4-yl]-1H-indole-3-carboxamide] |  |
| 10 to 100 nM |  | NC(=O)c1cn(-c2ccnc(Nc3ccc(OCCN4CCCC4)cc3)n2)c2ccccc12 [Compound 20, 1-{2-[4-(2-pyrrolidin-1-yl-ethoxy)-phenylamino]-pyrimidin-4-yl}-1H-indole-3-carboxamide] |  |
| 1 to 10 nM |  | COc1ccc2c(c1)c(C(N)=O)cn2-c1nc(Nc2cccc(N3CCN(C(C)C)CC3)c2)ncc1F [Compound 159, 1-{5-fluoro-2-[3-(4-isopropyl-piperazin-1-yl)-phenylamino]-pyrimidin-4-yl}-5-methoxy-1H-indole-3-carboxamide] |  |
| < 1 nM | 1 to 10 nM | Cc1cc(Nc2ncc(Cl)c(-n3cc(C(N)=O)c4ccccc43)n2)ccc1N1CCN(C)CC1 [Compound 56, 1-{5-chloro-2-[3-methyl-4-(4-methyl-piperazin-1-yl)-phenylamino]-pyrimidin-4-yl}-1H-indole-3-carboxamide] |  |
| 1 to 10 nM |  | CCN1CCN(c2cccc(Nc3ncc(F)c(-n4cc(C(N)=O)c5cc(N)ccc54)n3)c2)CC1 [Compound 162, 5-amino-1-{2-[3-(4-ethyl-piperazin-1-yl)-phenylamino]-5-fluoro-pyrimidin-4-yl}-1H-indole-3-carboxamide] |  |
